Data as given in patent publication US10265374B2, “Occidiofungin formations and uses thereof” (MISSISSIPPI STATE UNIVERSITY, priority 2014, dated 2019).
“And” between values parts separate entries of the source, which are not always exact repeats. Equal entries are not always repeated. “Also recorded” adds a separate entry of the source.

How the values were obtained:
[1] = Single dose toxicity study, i.v. occidiofungin in 1.5% hydroxy propyl-beta-cyclodextrin/PBS; assay type: in vivo, mice
Experimental: Female BALB/c mice at age of 6-8 weeks old were used. These mice were purchased from Harlan and allowed to acclimate at least 2 weeks after arrival. They were housed on a 12 hour light-dark cycle in a temperature and humidity controlled animal facility that is accredited by the American Association for Accreditation of Laboratory Animal Care. Animal care and use were in accord with NIH Guidelines and Texas A&M University regulations. Protocols used for the mice models were done in accordance to the methods reported by Luster et al. (See Reference 12).
Occidiofungin was produced as previously described and aliquoted and lyophilized into 100 μg quantities in 1.8 mL centrifuge tubes. […] Mice (5 mice per group) were given occidiofungin dissolved in 1.5% hydroxy propyl-beta-cylcodextrin suspended in phosphate buffered saline (PBS). […] For the experiments, occidiofungin was administered by intravenous (i.v.) injection into the tail vein at a single dose at 5 mg/kg of body weight. The excipient control in each experiment matched the vehicle. Body weight and clinical signs (movement, posture, skin lesions, appearance of fur indicating normal grooming, and behaviors) were recorded following administration at one, four, eight, sixteen, and twenty-four hours. Necropsies were performed at 24 hours following administration of occidiofungin.
Blood and tissue samples from animals dosed at 5 mg/kg of body weight with occidiofungin in 1.5% hydroxy propyl-beta-cylcodextrin suspended in PBS were taken 24 hours following excipient or drug administration. Mice were anesthetized with isofluorane. Blood was then taken from the retroorbital plexus or heart puncture for serum biochemistry assays (alkaline phosphatase, alanine aminotransferase, aspartate aminotransferase, albumin, and blood urea nitrogen) and hematology (white blood cell count and white blood cell differentiation). Body weight was measured immediately before treatment and 24 hours later before the mice were fully anesthetized and fixed in 10% neutral buffered formalin. Histological examination was performed on a portion of each organ by using routine paraffin embedding technique and staining with hematoxylin and eosin (H & E) (See Reference 14). All the sections were examined under light microscopy for pathological changes by a co-author of this paper, who is a board certified veterinary pathologist.

[2] = Pharmacokinetics of occidiofungin in DOPC or DOPC:DPPG vesicles; assay type: in vivo, mice; settings: vesicle formulations, 2.5 mg/kg i.v., mice
Experimental: Entrapment of occidiofungin in vesicles was done using 1,2-Dioleoyl-sn-glycero-3-phosphocholine (DOPC) and 1,2-dipalmitoyl-sn-glycero-3-[phospho-rac-(3-lysyl(1-glycerol))] (DPPG) from Avanti polar lipids. Lipid cake formation and subsequent hydration was done according to the manufacturer's recommendation. Briefly, 20 mg/ml of DOPC in chloroform was placed in a glass beaker and dried by vacuum evaporation to remove the organic solvent. The lipid film formed was hydrated using a 1 μg/μl solution of occidiofungin in 1.5% (2-Hydroxypropyl)-β-cyclodextrin (Alfa Aesar), while maintaining the lipid concentration at 20 mg/ml and the solution was sonicated to form the vesicles. Similarly, DPPG was mixed with DOPC at a ratio of 9:1 (DOPC:DPPG) to make a homogenous lipid mixture at a concentration of 20 mg/ml and the same process of drying and hydration was repeated to make vesicles. Following vesicle formation, estimation of the amount of occidiofungin trapped inside each type of vesicle was done. The mixture containing free and vesicle trapped occidiofungin was passed through a gel filtration column containing Sephadex G-10 beads. The void volume (containing only the vesicle trapped occidiofungin) was collected and occidiofungin extracted using methanol (50% final concentration). Liquid chromatography was done on the extracted sample, and a standard and the concentration of occidiofungin in the extracted sample was estimated by a comparison of peak volumes.
Occidiofungin in DOPC and DOPC-DPPG, at a concentration of 2.5 mg/kg, with ˜1.25 mg/kg entrapped in vesicles, was administered to six female BALB/c mice respectively via intravenous administration. […] The mice were weighed prior to the start of the experiment and every 24 hours post injection (hpi).
Blood was drawn at time points 1 hpi, 3 hpi, 5 hpi, 7 hpi, 9 hpi, 12 hpi, 18 hpi, 24 hpi and 48 hpi. 15 μl of blood was drawn from the lateral saphenous vein of each mouse for the first three time points. Blood from three mice were pooled together and added to 5 μl of 6.4% citric acid to prevent coagulation. From the fourth time point, blood was drawn from the tail vein of the mice. Blood samples were spun down at 13000 rpm for 10 minutes to separate the plasma. The plasma and the blood pellet obtained were stored separately at −20° C. until analysis. The plasma samples were thawed and the occidiofungin was extracted using a final concentration of 50% methanol. The protein precipitate was spun down at 13000 rpm for 10 minutes and the supernatant was used for analysis. Liquid chromatography was done using Acclaim 120 C18 columns (Length: 150 mm; I.D: 2.1 mm; 5 μm) to purify the occidiofungin in the sample. The occidiofungin was then subjected to MS/MS. Fragmentation of the occidiofungin (parent mass 1200 and 1216 Da) was carried out and the fragment of 1068 and 1084 Da m/z, which corresponds to the occidiofungin molecule (A and B forms, respectively) without the xylose sugar, was used for quantification of occidiofungin. A calibration curve constructed using standard concentrations of occidiofungin in plasma was used to analyze the samples obtained from the mice for pharmacokinetics (See FIGS. 6A-6B & 7A-7B).

[3] = Solubility of occidiofungin; assay type: physicochemical
[4] = single IV dose 5 mg/kg, 24 hours
[5] = single IV dose 5 mg/kg, 24 hours, mean, 5 mg/kg

## occidiofungin
[1]; 5 mg/kg i.v.
  behavioral response at 1 hour and to a lesser extent at 4 hours post i.v. administration: more lethargic than excipient treated mice and had ruffled fur
  mice behavior by 8, 16, and 24 hour post injection: appeared to be normal
[1]; 5 mg/kg i.v., 24 hours, esophagus, stomach, small intestine, colon, liver, pancreas, spleen, kidneys, lungs, heart, brain
  histological examination of organ tissues: no histological abnormalities; also recorded: No observable differences
[1]; 5 mg/kg i.v., 24 hours, ratio less than one indicative of liver damage
  ratio of AST to ALT in all treated mice: greater than one
[1]; single 5 mg/kg i.v. dose, 24 hours
  average weight loss: 6.2%
[1]; [4]
  Hematology: Lymphocytes %: 54 ± 15%
  Hematology: Neutrophils %: 43 ± 14%
  Hematology: Platelet estimate: 39 ± 21 xK/ul
  Hematology: WBC estimate: 4750 ± 1225
  Serum Biochemistry: ALP: 99 ± 34 U/l
  Serum Biochemistry: Albumin: 3.1 ± 0.6 g/dL
  Serum Biochemistry: BUN: 29.6 ± 5 mg/dL
[1]; single IV dose 5 mg/kg, 24 hours after administration, mean ± SD
  Weight Change %: −6.2 ± 9.9%
[1]; [5]
  Serum Biochemistry: ALT (SGPT): 521 U/l and 521 ± 652 U/l
  Serum Biochemistry: AST (SGOT): 765 U/l and 765 ± 692 U/l
[1]; single i.v. dose at 5 mg/kg
  toxicity observed in mice: no significant toxicity
[2]
  half-life: ~14 h
[3]; 1.5% hydroxy propyl-beta-cyclodextrin in PBS, suggests the drug went into solution
  O.D.600 after addition of vehicle to the purified dried drug: negligible absorbance difference to vehicle without drug
[3]; aqueous buffers
  solubility in aqueous buffers: relatively low
